Source: article PMC3341351, “Down-Regulation of GABAA Receptor via Promiscuity with the Vasoactive Peptide Urotensin II Receptor. Potential Involvement in Astrocyte Plasticity” (PLoS ONE, 2012)

Tested on: α2β1γ1 GABAAR co-expressed with human UT
Assay: Patch-clamp of Iso-evoked current in CHO-UT expressing α2β1γ1 GABAAR
Format: cell-based
Settings: hUII 10^−13 to 10^−7 M; Iso 10^−4 M, 2 s; −60 mV
Experimental: CHO-K1 cell lines were obtained from American Type Culture Collection (Manassas, VA, USA). The human UT stable CHO (CHO-UT) was generously provided by Dr Christophe Dubessy (Inserm, Rouen University, France) et generated by CHO electroporation with 20 µg pIRES-neo2-UT DNA and 500 µg sterile sonicated salmon sperm DNA using the EasyJect One electroporation system (Equibio, Angleur, Belgium), followed by repetitive rounds of limiting dilution of cells in G-418 (400 µg/ml) for selection. Normal or stable CHO was grown in Ham-F12 medium supplemented with 10% FBS, 1% antibiotic-antimicotic solution and 2 mM glutamine, at 37°C in a humidified incubator with an atmosphere of 5% CO2. The stable CHO-UT medium was supplemented with the antibiotic G-418 (40 µg/ml).
For transfection, cells were trypsinized (0.05%), triturated in HamF-12 containing 10% FBS media, pelleted by centrifugation, resuspended in 100 µl solution V for nucleofection by an Amaxa Nucleofector Device (Köln, Germany; set to program U-016). Experiments were performed on normal CHO or on the stable CHO-UT cells and transiently transfected with combinations of cDNA encoding α2β3γ2, α2β3γ1, α2β1γ2, α2β3γ1, α2β3, β3γ2 (4 µg of cDNA total/transfection) GABAAR subunits. Cells were seeded on 14-mm poly-L-lysine-coated glass bottom insert dishes at 5×10^5 cells in a volume of 0.5 ml/dish. […]

ETPDCFWKYCV (disulfide) [hUII, human urotensin II, synthesized by solid phase methodology]
Inhibitory effect on Iso-evoked current, α2β1γ1: less effective
